“And” between values parts separate entries of the source, which are not always exact repeats. Equal entries are not always repeated.
How the values were obtained:
[1] = Molar enthalpy of transition or fusion; settings: Crystal; DSC
[2] = Crystal; for vapor or sublimation pressure: Calculated from knudsen effusion weight loss; for Normal melting temperature: DTA

O=C(O)Cc1ccccc1Cl [(2-chlorophenyl)ethanoic acid]
Settings	Molar enthalpy of transition or fusion [kJ/mol]	Normal melting temperature [°C]
[1]	24.3	–
[2]	–	94.24

[2]
Settings	vapor or sublimation pressure
322.2 K	0.000151 kPa and 0.000153 kPa and 0.000152 kPa
324.14 K	0.000196 kPa and 0.000198 kPa and 0.000197 kPa
326.11 K	0.00025 kPa and 0.000251 kPa and 0.000255 kPa
328.2 K	0.000315 kPa and 0.00032 kPa and 0.000316 kPa
330.13 K	0.000401 kPa and 0.000406 kPa and 0.000402 kPa
332.19 K	0.000518 kPa and 0.000512 kPa
334.12 K	0.00065 kPa and 0.000639 kPa
336.11 K	0.000837 kPa and 0.000813 kPa and 0.000829 kPa
338.11 K	0.00105 kPa and 0.00103 kPa

O=C(O)Cc1cccc(Cl)c1 [(3-chlorophenyl)ethanoic acid]
Settings	Molar enthalpy of transition or fusion [kJ/mol]	Normal melting temperature [°C]
[1]	22.6	–
[2]	–	76.63

[2]
Settings	vapor or sublimation pressure
319.2 K	0.000131 kPa and 0.000132 kPa and 0.000133 kPa
321.13 K	0.000172 kPa and 0.000174 kPa
323.11 K	0.000226 kPa and 0.000216 kPa and 0.000224 kPa
325.2 K	0.000281 kPa and 0.000279 kPa
327.12 K	0.000356 kPa and 0.00036 kPa
329.11 K	0.000468 kPa and 0.000453 kPa and 0.00046 kPa
331.19 K	0.000576 kPa and 0.000578 kPa and 0.000567 kPa
333.11 K	0.000733 kPa and 0.000713 kPa
335.11 K	0.00092 kPa

O=C(O)Cc1ccc(Cl)cc1 [(4-chlorophenyl)ethanoic acid]
Settings	Molar enthalpy of transition or fusion [kJ/mol]	Normal melting temperature [°C]
[1]	23.6	–
[2]	–	104.8

[2]
Settings	vapor or sublimation pressure
325.2 K	0.000154 kPa and 0.000156 kPa and 0.000153 kPa
327.15 K	0.000194 kPa and 0.000199 kPa and 0.000197 kPa
329.12 K	0.000252 kPa and 0.00025 kPa
331.19 K	0.000318 kPa and 0.000312 kPa
333.14 K	0.000401 kPa and 0.000398 kPa and 0.000394 kPa
335.12 K	0.000506 kPa and 0.000502 kPa
337.2 K	0.000631 kPa and 0.000634 kPa
339.13 K	0.000788 kPa and 0.000793 kPa and 0.000775 kPa
341.11 K	0.001 kPa and 0.00099 kPa and 0.00098 kPa

Source: the NIST ThermoML archive (doi:10.1016/j.jct.2007.07.010)
